Laboratory results reported in PMC6128917, “Implications for the impairment of the rapid channel closing of Proteomonas sulcata anion channelrhodopsin 1 at high Cl^− concentrations” (Scientific Reports, 2018).

Molecular target: T1, PsuACR1 (PsACR1)
T1 construct: 291 residues plus C-terminal His8 kept (299 residues in total)
Assay: UV-visible absorption titration, λmax red-shift fitted with Hill equation (n = […] fixed)
Type: binding, Proteomonas sulcata
Conditions: 10 mM MOPS pH 7.0, 25 °C; ionic strength kept at 1,000 mM with Na2SO4; initial (unphotolysed) state

For Cl [Cl^−], the Kd was 5.5 ± 1.6 mM.
